Measured values reported in patent US20170348277A1, “CANNABINOID FORMULATION INCLUDING A V[…] OCULAR DELIVERY OF THE SAME” (priority 2017, published 2017).

Experiments:
[1] = Vasodilators studied for increasing the rate of delivery of cannabinoids to a desired site of action; details: vasodilator in cannabinoid formulation
Source text: Various vasodilators have been studied that have the desired effect of increasing the rate of delivery of cannabinoids to a desired site of action. […] The classes of vasodilators that may be substituted for the MSM of the present invention either in a preferred combination or in isolation. These classes include: • Alpha-adrenoceptor antagonists (alpha-blockers) • Angiotensin converting enzyme (ACE) inhibitors • Angiotensin receptor blockers (ARBs) • Beta2-adrenoceptor agonists (β2-agonists) • Calcium-channel blockers (CCBs) • Centrally acting sympatholytics • Direct acting vasodilators • Endothelin receptor antagonists • Ganglionic blockers • Nitrodilators • Phosphodiesterase inhibitors • Potassium-channel openers • Renin inhibitors

[2] = oral; cited from earlier work

For methylsulfonylmethane [MSM], the “increasing the rate of delivery of cannabinoids to a desired site of action” value [1] is given as “sufficiently effective” and the “safe dose when taken orally” value [2] is given as “up to 2 gm/kg of body weight per day”.
